For orientation: IC50 means the concentration that gives 50% inhibition.

One assay concerns the target T1, KRas^G12D (Homo sapiens, UniProt P01116, G12D).
T1 construct: Biotinylated KRas (corresponding to amino acids 1-169, produced at Accelegan Inc.); biotin (biotinylated); purchased Accelegan Inc
The assay can be described thus: KRas TR-FRET tracer displacement binding assay, G12D. The conditions noted are these: 60-minute incubation. The gist of the method: (§1)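 TR-FRET displacement: biotinylated KRas (aa 1-169) incubated with Cy5-labelled tracer, terbium streptavidin and compound (1% DMSO final) in 50 mM HEPES pH 7.5, 5 mM MgCl2, 0.005% Tween-20, 1 mM DTT. Read after 60-minute room-temperature incubation.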
(In TR-FRET formats the signal depends on donor and acceptor labels being close together.)

A further assay addresses T2, KRas^G12V (Homo sapiens, UniProt P01116, G12V).
T2 construct: Biotinylated KRas (corresponding to amino acids 1-169, produced at Accelegan Inc.); biotin (biotinylated); purchased Accelegan Inc
The assay can be described thus: KRas TR-FRET tracer displacement binding assay, G12V. The conditions noted are these: 60-minute incubation. The gist of the method: as §1

A further assay addresses T3, KRas^WT (Homo sapiens, UniProt P01116).
T3 construct: Biotinylated KRas (corresponding to amino acids 1-169, produced at Accelegan Inc.); biotin (biotinylated); purchased Accelegan Inc
In words: KRas TR-FRET tracer displacement binding assay, WT. The conditions noted are these: 60-minute incubation. The procedure, abridged: as §1

A further assay addresses T4, KRas^G12C (Homo sapiens, UniProt P01116, G12C).
T4 construct: Biotinylated KRas (corresponding to amino acids 1-169, produced at Accelegan Inc.); biotin (biotinylated); purchased Accelegan Inc
The assay can be described thus: KRas TR-FRET tracer displacement binding assay, G12C. Particulars: 60-minute incubation. The procedure, abridged:
as §1

The next assay deals with T5, KRas^G12S (Homo sapiens, UniProt P01116, G12S).
T5 construct: Biotinylated KRas (corresponding to amino acids 1-169, produced at Accelegan Inc.); biotin (biotinylated); purchased Accelegan Inc
In words: KRas TR-FRET tracer displacement binding assay, G12S. The conditions noted are these: 60-minute incubation. The procedure, abridged:
as §1

Assay [1] concerns KRas-mediated Phosphorylation of ERK in AsPC-1 cells. In words: Cisbio HTRF pERK assay, AsPC-1 cells. Type of assay: cell-based. Particulars: 3 hrs compound, read-out: Inhibition (HTRF IC50 nM) of KRas-mediated Phosphorylation of ERK, AsPC-1.
The test system of assay [2] is KRas-mediated Phosphorylation of ERK in H727 cells. In words: Cisbio HTRF pERK assay, H727 cells. The class given is cell-based. Particulars: 3 hrs compound, read-out: Inhibition (HTRF IC50 nM) of KRas-mediated Phosphorylation of ERK, H727.
The test system of assay [3] is KRas-mediated Phosphorylation of ERK in HCT116 cells. The assay can be described thus: Cisbio HTRF pERK assay, HCT116 cells. The class given is cell-based. Particulars: HCT116 cells, 3 hrs compound, read-out: Inhibition (HTRF IC50 nM) of KRas-mediated Phosphorylation of ERK, HCT116.
Assay [4] deals with KRas-mediated Phosphorylation of ERK in A549 cells. The assay can be described thus: Cisbio HTRF pERK assay, A549 cells. The class given is cell-based. Particulars: A549 cells, 3 hrs compound, read-out: Inhibition (HTRF IC50 nM) of KRas-mediated Phosphorylation of ERK, A549.
Assay [5] deals with KRas-mediated Phosphorylation of ERK in H460 cells. In words: Cisbio HTRF pERK assay, H460 cells. Type of assay: cell-based. The conditions noted are these: H460 cells, 3 hrs compound, read-out: Inhibition (HTRF IC50 nM) of KRas-mediated Phosphorylation of ERK, H460.
Assay [6] deals with KRas-mediated Phosphorylation of ERK in H358 cells. In words: Cisbio HTRF pERK assay, H358 cells. The class given is cell-based. Particulars: H358 cells, 3 hrs compound, read-out: Inhibition (HTRF IC50 nM) of KRas-mediated Phosphorylation of ERK, H358.
In assay [7] the test system is KRas-mediated Phosphorylation of ERK in H2009 cells. In words: Cisbio HTRF pERK assay, H2009 cells. The conditions noted are these: read-out: Inhibition (HTRF IC50 nM) of KRas-mediated Phosphorylation of ERK, H2009. The class given is cell-based.
For assay [8], the system named is KRas-mediated Phosphorylation of ERK in PSN1 cells. In words: Cisbio HTRF pERK assay, PSN1 cells. Type of assay: cell-based. Particulars: 3 hour compound, read-out: Inhibition (HTRF IC50 nM) of KRas-mediated Phosphorylation of ERK, PSN1. The method, then:
Inhibition of KRas Phosphorylation of ERK (HTRF) by Exemplary Compounds of Formula (I) • Cisbio HTRF Advanced pERK Assay Catalog #64AERPEH • Cell: MKN1, PSN1 • Procedure: • Day 1: Seed 6,000 cells/well −25 μl/well in 384-well white solid bottom plate; RPM1_10% FBS.

Setting [9] is: Homo sapiens, NCI-H2009, H2009 cells.

Like-named read-outs stand apart in the source and are kept apart here.

T2 sequence (P01116 1-169 isoform P01116-2 G12V): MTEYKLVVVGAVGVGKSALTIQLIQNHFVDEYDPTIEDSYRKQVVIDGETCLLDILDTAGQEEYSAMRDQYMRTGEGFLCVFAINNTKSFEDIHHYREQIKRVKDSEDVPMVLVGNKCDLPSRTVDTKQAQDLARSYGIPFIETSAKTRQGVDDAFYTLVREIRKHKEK
T3 sequence (P01116 1-169 isoform P01116-2): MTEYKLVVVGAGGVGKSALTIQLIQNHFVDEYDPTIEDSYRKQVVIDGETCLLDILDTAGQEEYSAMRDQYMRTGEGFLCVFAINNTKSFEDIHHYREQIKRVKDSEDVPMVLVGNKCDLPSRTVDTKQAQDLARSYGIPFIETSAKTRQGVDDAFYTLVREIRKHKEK
T4 sequence (P01116 1-169 isoform P01116-2 G12C): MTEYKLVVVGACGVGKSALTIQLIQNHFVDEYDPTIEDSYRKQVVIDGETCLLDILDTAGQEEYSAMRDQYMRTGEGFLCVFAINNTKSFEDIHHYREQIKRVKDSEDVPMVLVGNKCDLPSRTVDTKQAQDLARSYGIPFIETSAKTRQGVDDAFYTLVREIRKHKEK
T5 sequence (P01116 1-169 isoform P01116-2 G12S): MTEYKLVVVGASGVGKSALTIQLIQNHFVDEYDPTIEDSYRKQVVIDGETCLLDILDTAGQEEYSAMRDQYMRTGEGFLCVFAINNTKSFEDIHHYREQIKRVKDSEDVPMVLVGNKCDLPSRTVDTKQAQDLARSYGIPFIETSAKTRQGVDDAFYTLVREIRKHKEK
T1 sequence (P01116 1-169 isoform P01116-2 G12D): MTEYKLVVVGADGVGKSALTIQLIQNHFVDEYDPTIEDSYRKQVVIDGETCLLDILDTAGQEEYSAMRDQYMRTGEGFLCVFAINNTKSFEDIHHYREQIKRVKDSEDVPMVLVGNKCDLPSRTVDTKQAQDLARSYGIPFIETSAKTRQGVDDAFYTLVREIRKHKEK

Take `Cc1c(F)c(N)nc(-c2c(Cl)cc3c(NC(C)c4cccnc4N)nc(OC[C@@]45CCCN4C[C@H](F)C5)nc3c2F)c1C(F)(F)F` (single isomer, unassigned; isomer 1) [Example 172]: the IC50 at KRas^G12D was 34 nM; on KRas^G12V it was 3 nM; at KRas^WT, 11 nM; on KRas^G12C it was under 2 nM; on KRas^G12S, 3 nM; in assay [1], 794 nM. The half-maximal inhibitory concentration (IC50) was found to be 111 nM in [2]; 841 nM in assay [3]; 111 nM in assay [4]; 182 nM in [5]; 15 nM in assay [6]; 8 nM in assay [7] (H2009 cells). In addition, the half-inhibitory concentration (IC50) in assay [8] was determined as 4290 nM.

With `N#Cc1c(N)sc2c(F)ccc(-c3c(Cl)cc4c(N5CCC5CO)nc(OC[C@@]56CCCN5C[C@H](F)C6)nc4c3F)c12` (stereo partly drawn) [Example 209, 2-amino-4-(6-chloro-8-fluoro-2-(((2R,7aS)-2-fluorotetrahydro-1H-pyrrolizin-7a(5H)-yl)methoxy)-4-(2-(hydroxymethyl)azetidin-1-yl)quinazolin-7-yl)-7-fluorobenzo[b]thiophene-3-carbonitrile], the IC50 on KRas^G12D was 7 nM; at KRas^G12V it was under 2 nM; on KRas^WT, 2 nM; on KRas^G12C, 4 nM; on KRas^G12S it was 2 nM; in assay [1] (Homo sapiens, ASPC1, 3 h), 93 nM. The 50% inhibitory concentration (IC50) in assay [2] (Homo sapiens, NCI-H727, 3 h) came to 27 nM; in assay [3] (Homo sapiens, HCT-116, 3 h), 83 nM; in assay [4] (Homo sapiens, A549, 3 h), 68 nM; in assay [5] (Homo sapiens, NCI-H460, 3 h) it was 47 nM; in assay [6] (Homo sapiens, NCI-H358, 3 h), 9 nM; in assay [7] (setting [9]), 15 nM. The half-maximal inhibitory concentration (IC50) in assay [8] (Homo sapiens, PSN1, 3 h) is 1690 nM.

With `Cc1c(F)c(N)nc(-c2c(Cl)cc3c(NC(C)c4cccnc4N)nc(OC[C@@]45CCCN4C[C@H](F)C5)nc3c2F)c1C(F)(F)F` (single isomer, unassigned; isomer 2) [Example 173], the concentration for half-maximal inhibition (IC50) stood at 661 nM at KRas^G12D; 430 nM on KRas^G12V; 751 nM on KRas^WT; 454 nM at KRas^G12C; 331 nM at KRas^G12S; 1890 nM in [1]. For the same molecule, the half-inhibitory concentration (IC50) in [2] was determined as 252 nM; in [3] it was 2900 nM; in [4], 244 nM; in assay [5], 511 nM; in assay [6], 95 nM; in assay [7] (H2009 cells), 40 nM. In assay [8], the IC50 is over 10000 nM.

With `N#Cc1c(N)sc2c(F)ccc(-c3c(Cl)cc4c(NC5CS(=O)(=O)C5)nc(OC[C@@]56CCCN5C[C@H](F)C6)nc4c3F)c12` [Example 218, 2-amino-4-(6-chloro-4-((1,1-dioxidothietan-3-yl)amino)-8-fluoro-2-(((2R,7aS)-2-fluorotetrahydro-1H-pyrrolizin-7a(5H)-yl)methoxy)quinazolin-7-yl)-7-fluorobenzo[b]thiophene-3-carbonitrile], the IC50 in [1] (Homo sapiens, ASPC1, 3 h) stood at 1650 nM; in assay [2] (Homo sapiens, NCI-H727, 3 h), 429 nM; in [3] (Homo sapiens, HCT-116, 3 h), 566 nM; in assay [4] (Homo sapiens, A549, 3 h) it was 720 nM; in assay [5] (Homo sapiens, NCI-H460, 3 h), 365 nM; in [6] (Homo sapiens, NCI-H358, 3 h), 57 nM. Besides, the concentration for half-maximal inhibition (IC50) in assay [7] (setting [9]) was found to be 80 nM; in assay [8] (Homo sapiens, PSN1, 3 h) it was 5110 nM.

Regarding `N#Cc1c(N)sc2c(F)ccc(-c3c(Cl)cc4c(N5CCCCCC5)nc(OC[C@@]56CCCN5C[C@H](F)C6)nc4c3F)c12` [Example 210, 2-amino-4-(4-(azepan-1-yl)-6-chloro-8-fluoro-2-(((2R,7aS)-2-fluorotetrahydro-1H-pyrrolizin-7a(5H)-yl)methoxy)quinazolin-7-yl)-7-fluorobenzo[b]thiophene-3-carbonitrile], the IC50 in assay [1] (Homo sapiens, ASPC1, 3 h) came out at 21 nM; in assay [2] (Homo sapiens, NCI-H727, 3 h), 22 nM; in assay [3] (Homo sapiens, HCT-116, 3 h), 54 nM; in assay [4] (Homo sapiens, A549, 3 h), 38 nM; in [5] (Homo sapiens, NCI-H460, 3 h), 25 nM; in [6] (Homo sapiens, NCI-H358, 3 h) it was 10 nM. The IC50 stood at 5 nM in assay [7] (setting [9]) and 1190 nM in [8] (Homo sapiens, PSN1, 3 h).
